According to patent US20110245242A1, “Heterocyclically Substituted Anilinopyrimides” (Bayer CropScience AG, priority 2008, published 2011):

Legend:
[1] = log P by HPLC on reversed-phase columns (C 18), method [a], acidic range pH 2.3; assay type: physicochemical; settings: for chromatographic logP: pH 2.3, log P (pH 2.3)
Protocol: The log P values were measured in accordance with EEC Directive 79/831 Annex V.A8 by HPLC (High Performance Liquid Chromatography) on reversed-phase columns (C 18) using the methods below: [a] The determination was carried out in the acidic range at pH 2.3 using the mobile phases 0.1% aqueous phosphoric acid and acetronitrile linear gradient from 10% acetonitrile to 95% acetronitrile.

physchem = assay type: physicochemical; settings: pH 7.8
Protocol: The log P values were measured in accordance with EEC Directive 79/831 Annex V.A8 by HPLC (High Performance Liquid Chromatography) on reversed-phase columns (C 18) using the methods below: [c] The LC-MS determination in the neutral range was carried out at pH 7.8 using the mobile phases 0.001 molar aqueous ammonium bicarbonate solution and acetonitrile linear gradient from 10% acetonitrile to 95% acetonitrile.

Fusarium proliferatum = assay: Production of Fumonisin FB1 by Fusarium proliferatum (microtitre plates; FB1 by HPLC-MS/MS, growth by OD620); assay type: cell-based; settings: for pI50 Fum: FB1 concentration in liquid medium after 6 days at 20° C., HPLC-MS/MS; for pI50 growth: OD620 at the beginning and after 6 days
[2] = log P by LC-MS, method [b], acid range pH 2.7; assay type: physicochemical; settings: pH 2.7
Protocol: The log P values were measured in accordance with EEC Directive 79/831 Annex V.A8 by HPLC (High Performance Liquid Chromatography) on reversed-phase columns (C 18) using the methods below:
[b] The LC-MS determination in the acid range was carried out at pH 2.7 using the mobile phases 0.1% aqueous formic acid and acetonitrile (contains 0.1% formic acid)
linear gradient from 10% acetonitrile to 95% acetonitrile.

SMILES | log p ([1]; pH 2.3) | log p (physchem) | pI50 Fum (Fusarium proliferatum) | log p [2] | pI50 growth (Fusarium proliferatum) | also measured
C=CCNc1nc(Nc2ccc(N3CCOC3=O)cc2)ncc1Cl [Example 15] | 1.25[a]; | 2.25[c] | – | – | – | –
O=C1OCCN1c1ccc(Nc2ncc(Cl)c(NC3COC3)n2)cc1 [Example 17] | 0.26[a]; | 0.76[c] | – | – | – | –
O=C1CCCN1c1ccc(Nc2ncc(Cl)c(NC3COC3)n2)cc1 [Example 18] | 0.41[a]; | 0.9[c] | – | – | – | –
CC1COC(=O)N1c1cccc(Nc2ncc(C(F)(F)F)c(NC3CC3)n2)c1 (stereo not drawn) [Example 19] | – | – | 6.2 | 2.4[b] | – | –
O=C1CCCN1c1cc(Nc2ncc(Cl)c(NC3CC3)n2)ccc1OC(F)(F)F [Example 20] | 2.34[a]; | 2.91[c] | – | – | – | –
CC(C)Nc1nc(Nc2ccc(N3CCCC3=O)cc2)ncc1Cl [Example 21] | 1.44[a]; | 2.56[c] | – | – | – | –
CC(C)Nc1nc(Nc2cccc(N3CCCC3=O)c2)ncc1Cl [Example 22] | 1.52[a]; | 2.64[c] | – | – | – | –
CC1(C)CC(=O)N(c2cccc(Nc3ncc(Cl)c(NC4CC4)n3)c2)C1=O [Example 25] | 1.83[a] | – | 6.3 | – | 5.6 | –
CC1(C)CC(=O)N(c2cccc(Nc3ncc(Br)c(NC4CC4)n3)c2)C1=O [Example 28] | – | – | 6.2 | 1.99[b] | – | –
CCC1COC(=O)N1c1cccc(Nc2ncc(Cl)c(NC3CC3)n2)c1 (stereo not drawn) [Example 31] | 1.86[a] | – | 6.3 | – | 5.7 | –
CC1CCC(=O)N1c1cccc(Nc2ncc(Br)c(NC3CCC3)n2)c1 (stereo not drawn) [Example 36] | – | – | 6.2 | 1.97[b] | 5.3 | –
CSCC(C)(C)Nc1nc(Nc2cccc(N3CCCC3=O)c2)ncc1Cl [Example 41] | 2.17[a]; | 3.26[c] | – | – | – | –
O=C1CCCN1c1cccc(Nc2ncc(F)c(NC3CCC3)n2)c1 [Example 43] | 1.31[a]; | 2.32[c] | – | – | – | –
O=C1CCCN1c1cccc(Nc2ncc(Cl)c(NCC(F)F)n2)c1 [Example 44] | 1.64[a]; | 2.19[c] | – | – | – | –
O=C1CCCN1c1cc(Nc2ncc(Cl)c(NCC(F)F)n2)ccc1F [Example 51] | 1.72[a]; | 2.15[c] | – | – | – | –
CC1COC(=O)N1c1cccc(Nc2ncc(Br)c(NC3CCC3)n2)c1 (stereo not drawn) [Example 56] | 1.97[a] | – | 6.2 | – | 5.6 | –
CNc1nc(Nc2ccc(N3CCOC3=O)cc2)ncc1Cl [Example 61] | 0.73[a]; | 1.82[c] | – | – | – | –
CC1CC(=O)N(c2cccc(Nc3ncc(Cl)c(NC4CC4)n3)c2)C1=O (stereo not drawn) [Example 65] | – | – | 6.2 | 1.59[b] | 5.7 | –
CC1CC(=O)N(c2cccc(Nc3ncc(Br)c(NC4CCC4)n3)c2)C1=O (stereo not drawn) [Example 73] | – | – | 6.4 | 1.9[b] | 5.8 | –
CC(C)[C@H]1COC(=O)N1c1cccc(Nc2ncc(Cl)c(NC3CC3)n2)c1 [Example 76] | – | – | 6.2 | 2.47[b] | 5.6 | –
CC(C)N(C)c1nc(Nc2cccc(N3CCCC3=O)c2)ncc1Cl [Example 77] | 2.1[a]; | 3.18[c] | – | – | – | –
O=C1C(O)CCN1c1cccc(Nc2ncc(Cl)c(NC3CC3)n2)c1 (stereo not drawn) [Example 78] | 1.14[a]; | 1.84[c] | – | – | – | –
O=C1CCC(CO)N1c1cccc(Nc2ncc(Br)c(NC3CC3)n2)c1 (stereo not drawn) [Example 79] | 1.04[a]; | 1.65[c] | – | – | – | –
CN(c1nc(Nc2cccc(N3C(=O)CCC3CO)c2)ncc1Cl)C1CC1 (stereo not drawn) [Example 82] | 1.54[a]; | 2.06[c] | – | – | – | –
O=C1C[C@@H](O)CN1c1cccc(Nc2ncc(Cl)c(NC3CC3)n2)c1 [Example 108] | 0.98[a]; | 1.68[c] | – | – | – | –
CC1COC(=O)N1c1cccc(Nc2ncc(Cl)c(NC3CC3(C)C)n2)c1 (stereo not drawn) [Example 120] | 2.15[a]; | 3.12[c]; | – | 2.15[b] | – | –

SMILES | log p ([1]; pH 2.3) | log p (physchem) | pI50 Fum (Fusarium proliferatum) | log p [2] | pI50 growth (Fusarium proliferatum) | also measured
CC1CC(=O)N(c2cccc(Nc3ncc(Cl)c(NC4CC4(C)C)n3)c2)C1=O (stereo not drawn) [Example 121] | 2.13[a]; | 2.92[c]; | – | 2.13[b] | – | –
CC1(C)CC(=O)N(c2cccc(Nc3ncc(Cl)c(NC4CC4(C)C)n3)c2)C1=O (stereo not drawn) [Example 122] | 2.42[a]; | 3.28[c]; | – | 2.42[b] | – | –
CC1(C)CC1Nc1nc(Nc2cccc(N3CCCC3=O)c2)ncc1Cl (stereo not drawn) [Example 127] | 1.98[a]; | 2.99[c]; | – | 1.98[b] | – | –
CC1COC(=O)N1c1cccc(Nc2ncc(Br)c(NCC3CC3)n2)c1 (stereo not drawn) [Example 131] | – | – | 6 | 1.75[b] | 5.3 | –
O=C1CCC(CO)N1c1cccc(Nc2ncc(Cl)c(NC3CC3)n2)c1 (stereo not drawn) [Example 136] | 0.96[a]; | 1.6[c] | – | – | – | –
COC(=O)C1CC(=O)N(c2cccc(Nc3ncc(Cl)c(NC4CC4)n3)c2)C1 (stereo not drawn) [Example 137] | – | – | 5.7 | 1.52[b] | 5.1 | –
CC(C)Nc1nc(Nc2cccc(N3CCOC3=O)c2)ncc1Cl [Example 138] | – | – | 5 | 1.56[b] | 4.9 | –
CC(C)Nc1nc(Nc2cccc(N3C(=O)OCC3C)c2)ncc1Cl (stereo not drawn) [Example 139] | – | – | 5 | 1.64[b] | 5 | –
CC(C)Nc1nc(Nc2cccc(N3C(=O)CC(C)(C)C3=O)c2)ncc1Cl [Example 140] | – | – | 5.7 | 1.81[b] | 5.2 | –
CC(C)Nc1nc(Nc2cccc(N3CCOC3=O)c2)ncc1Br [Example 146] | – | – | – | 1.63[b] | 5 | –
CC1COC(=O)N1c1cccc(Nc2ncc(Cl)c(NCC(F)(F)F)n2)c1 (stereo not drawn) [Example 169] | – | – | 5.5 | 2.16[b] | 5.1 | –
CN(c1nc(Nc2cccc(N3C(=O)CC(C)(C)C3=O)c2)ncc1Cl)C1CC1 [Example 177] | – | – | 6.1 | 2.55[b] | 5.7 | –
CC1CC(C)N(c2cccc(Nc3ncc(Cl)c(N(C)C4CC4)n3)c2)C1=O (stereo not drawn) [Example 178] | – | – | 5.7 | 2.61[b] | 4.9 | –
CC(=O)N(c1cccc(N2CCCC2=O)c1)c1ncc(Cl)c(NCC2CC2)n1 [Example 184] | – | 2.38[c]; | – | 2.35[b] | – | log P (pH 2.3) ([1]; pH 2.3): 2.35
O=C1OCCN1c1cccc(Nc2ncc(C(F)(F)F)c(NC3CCC3)n2)c1 [Example 194] | – | – | 6.1 | 2.58[b] | 5.4 | –
CC1(C)CC(=O)N(c2cccc(Nc3ncc(C(F)(F)F)c(NCC4CC4)n3)c2)C1=O [Example 196] | – | – | 5.3 | 2.81[b] | 4.8 | –
CC1CC1Nc1nc(Nc2cccc(N3CCCC3=O)c2)ncc1Cl (stereo not drawn) [Example 200] | – | – | 4.8 | 1.72[b] | 4.7 | –
CC1CC1Nc1nc(Nc2cccc(N3CCCC3=O)c2)ncc1C(F)(F)F (stereo not drawn) [Example 219] | – | – | 6.3 | 2.79[b] | 5.5 | –
CC(Nc1nc(Nc2cccc(N3CCCC3=O)c2)ncc1C(F)(F)F)C(F)(F)F (stereo not drawn) [Example 220, 1-[3-({5-(Trifluoromethyl)-4-[(1,1,1-trifluoropropan-2-yl)amino]pyrimidin-2-yl}amino)phenyl]-pyrrolidin-2-one] | – | – | – | – | – | chromatographic logP [1]: 3.08; chromatographic logP [2]: 3.08; chromatographic logP (physchem): 3.05
CC1CCN(Cc2cccc(Nc3ncc(Cl)c(N(C)C4CC4)n3)c2)C1=O (stereo not drawn) [Example 233] | 2.5[a]; | 3.25[c] | – | – | – | –
CC1CCN(Cc2cccc(Nc3ncc(Cl)c(NC4CC4)n3)c2)C1=O (stereo not drawn) [Example 234] | 1.7[a]; | 2.57[c] | – | – | – | –
COC1=CC(=O)N(c2cccc(Nc3ncc(Cl)c(NC4CC4)n3)c2)C1 [Example 237] | 1.55[a]; | 2.45[c] | – | – | – | –
COC1=CC(=O)N(c2cccc(Nc3ncc(Br)c(NC4CC4)n3)c2)C1 [Example 238] | 1.77[a]; | 2.65[c] | – | – | – | –
CN1CCN(c2cccc(Nc3ncc(Cl)c(NC4CC4(C)C)n3)c2)C1=O (stereo not drawn) [Example 313] | 1.93[a]; | 3.06[c]; | – | 1.93[b] | – | –
CC(C)OC(=O)N(c1cccc(N2CCCC2=O)c1)c1ncc(Cl)c(NC2CC2)n1 [Example 329, Isopropyl [5-chloro-4-(cyclopropylamino)pyrimidin-2-yl][3-(2-oxopyrrolidin-1-yl)phenyl]carbamate] | – | – | – | – | – | chromatographic logP [1]: 2.24; chromatographic logP [2]: 2.24; chromatographic logP (physchem): 2.55
CCOC(=O)N(c1cccc(N2CCCC2=O)c1)c1ncc(Cl)c(NC2CC2)n1 [Example 330, Ethyl [5-chloro-4-(cyclopropylamino)pyrimidin-2-yl][3-(2-oxopyrrolidin-1-yl)phenyl]-carbamate] | – | – | – | – | – | chromatographic logP [1]: 2.04; chromatographic logP [2]: 2.04; chromatographic logP (physchem): 2.24
